One data set deals with RINm5F cells. The data set is described as follows: Membrane potential on isolated β cells (RINm5F cells, whole cell patch clamp). The data set is classed as cell-based. To be noted: compound 10^−5 mol per liter, diazoxide (100 μmol) in bath, 34±1° C. The source says:
(2) Membrane potential on isolated β cells:
The action mechanism of hypoglycemic sulfonylureas is clarified in rough outlines. The β cells of the pancreas are the target organ, where increased secretion of the hypoglycemic hormone insulin occurs. The release of insulin is controlled by the cell membrane potential. Glibenclamide causes depolarization of the cell membrane, which promotes insulin release via an increased in-flow of calcium ions. The extent of this depolarization of the call membrane ΔU was determined on RINm5F cells, a pancreas tumor cell line, for some of the compounds according to the invention. The action strength of a compound in this model predicts the extent of the hypoglycemic potential of this compound.
RINm5F cells were cultured at 37° C. in RPMI 1640 culture medium (flow), to which […] of glucose, 10% (volume/volume) of fetal calf serum, 2 mmol of glutamine and 50 μg/ml of gentamycin were added. For the studies, the cells were isolated by incubation (about 3 minutes) in a Ca^2+-free medium containing 0.25% of trypsin and stored on ice.
Isolated RINm5F cells were introduced into a Plexi-glas chamber on an inverse microscope fitted with a differential interference contrast lens. A fire-polished micropipette with an opening diameter of about 1 μm was placed on the cell with the aid of a micromanipulator under optical control (400-fold magnification). By applying a slight reduced pressure in the patch pipette, a high electrical seal was first produced between the glass and cell membrane, and was then broken open by increasing the reduced pressure of the membrane spot under the measurement pipette. The cell potential was recorded in this whole cell configuration with the aid of a patch clamp amplifier (L/M EPC 7) and was measured by applying a potential ramp to the whole cell current.
Solutions: The patch pipette was filled with KCl solution (in mmol): 140 KCl, 10 NaCl, 1.1 MgCl2, 0.5 EGTA, 1 Mg-ATP, 10 HEPES, pH=7.2, and the bath contained NaCl solution (in mmol): 140 NaCl, 4.7 KCl, 1.1 MgCl2, 2 CaCl2, 10 HEPES, pH=7.4. […]

In data set [1] the test system is papillary muscle of the guineapig. The experiment in a line: Action potential duration on the papillary muscle of the guineapig. In kind it is cell-based. The note with it: test substance 2.2×10^−5 mol per liter, 30 minutes after the addition, repolarization degree of 95%; for APD95-HOE 234: action potential shortened by 1 μM potassium channel opener Hoe 234 (rilmakalim); for APD95-DEO: action potential shortened by 2-deoxyglucose (DEO). The source says:
(1) Action potential duration on the papillary muscle of the guineapig:
ATP deficiency states such as are observed during ischemia in the cardiac muscle cell lead to a shortening of the duration of action potential. They are one of the causes of so-called reentry arrhythmias, which can cause sudden cardiac death. Opening of ATP-sensitive K channels by the reduction in ATP is a cause of this.
A standard microelectrode technique is used for measurement of the action potential. For this, guineapigs of both sexes are sacrificed by a blow to the head, the hearts are removed and the papillary muscles are separated out and suspended in an organ bath. The organ bath is flushed with Ringer solution (0.9% NaCl, 0.048% KCl, 0.024% CaCl2, 0.02% NaHCO3 and 0.1% glucose) and gassed with a mixture of 95% oxygen and 5% carbon dioxide at a temperature of 36° C. The muscle is stimulated via an electrode with rectangular pulses of 1 V and 1 ms duration and a frequency of 2 Hz. The action potential is conducted and recorded through a glass microelectrode, which is punctured intracellularly and filled with 3 mol KCl solution. The substances to be tested were added to the Ringer solution in a concentration of 2.2×10^−5 mol per liter. The action potential is shown in amplified form on an oscilloscope using a Hugo Sachs amplifier. The duration of the action potential is determined at a repolarization degree of 95% (APD95). Shortenings in action potential are caused either by addition of a 1 μM strength solution of the potassium channel opener Hoe 234 (rilmakalim) [W. Linz, E. Klaus, U. Albus, R. H. A. Becker, D. Mania, H. C. Englert, B. A. Schölkens Arzneimittelforechung/Drug Research, Volume 42 (II), 1992, pages 1180-1185] or by addition of 2-deoxyglucose (DEO). ATP deficiency states are caused in experimental physiology by 2-deoxyglucose by blockade of glucose meta-bolism. The action potential-shortening effect of these substances was prevented or reduced by the simultaneous dose of the test substances. The test substances were added to the bath solution as stock solutions in propanediol. The values stated relate to measurements 30 minutes after the addition. The APD95 in the presence of DEO or HOE 234 and in the absence of the test substance serves an a control.

Molecules are shown by their SMILES.

What is called melting point is the temperature of the solid-liquid transition.

`CCOc1ccc(CCNC(=O)c2cc(Cl)ccc2OC)cc1S(=O)(=O)NC(=O)NC` gave a melting point of 190 to 195 °C.
On the same count and under the same terms, the result for `CCc1ccc(CCNC(=O)c2cc(Cl)ccc2OC)cc1S(=O)(=O)NC(=O)NC` reads 207 °C.
On the same count and under the same terms, the result for `CNC(=O)NS(=O)(=O)c1cc(CCCNC(=O)c2cc(Cl)ccc2OC)ccc1OC` reads 285 °C; that for `CNC(=S)NS(=O)(=O)c1cc(CCNC(=O)c2cc(Cl)ccc2OC)ccc1C`, 183 °C; that for `CNC(=O)NS(=O)(=O)c1cc(CCNC(=O)c2cc(F)ccc2OC)ccc1OC`, 199 to 200 °C.
In the case of `CNC(=S)NS(=O)(=O)c1cc(CCNC(=O)c2cc(F)ccc2OC)ccc1OC`, the melting point is 182 to 185 °C.
In turn, `CCc1ccc(CCNC(=O)c2cc(Cl)ccc2OC)cc1S(=O)(=O)NC(=S)NC` displayed a melting point of 155 °C.
Turning to `CNC(=O)NS(=O)(=O)c1cc(CCNC(=O)c2cc(Cl)ccc2OC)ccc1OC` [Example 1, 2-Methoxy-5-chloro-N-{5-[1-sulfonylamino-N-(methylaminocarbonyl)-2-methoxyphenyl]-ethyl}-benzamide], in the data set with RINm5F cells, the “ΔU (depolarization of the cell membrane)” value is on record as 13 (−76) n = 6 mv. In data set [1], the “APD95-HOE 234” value is 138 ± 3 (160 ± 20) ms and the APD95-DEO is 107 ± 14 (155 ± 9) ms.
Taken in the same sequence, the figures for `CNC(=O)NS(=O)(=O)c1cc(CCNC(=O)c2cc(Cl)ccc2OC)ccc1C` [Example 4, 2-Methoxy-5-chloro-N-{5-[1-sulfonylamino-N-(methylaminocarbonyl)-2-methylphenyl]-ethyl}-benzamide] were 19 (−76) n = 3 mv, 123 ± 15 (172 ± 18) ms and 110 ± 23 (180 ± 5) ms.
Take `CNC(=S)NS(=O)(=O)c1cc(CCNC(=O)c2cc(Cl)ccc2OC)ccc1OC` [Example 10, 2-Methoxy-5-chloro-N-{5-[1-sulfonylamino-N-(methylaminothiocarbonyl)-2-methoxyphenyl]-ethyl}-benzamide]: the “ΔU (depolarization of the cell membrane)” value in the data set on RINm5F cells is 11 (−79) n = 3 mv. Moreover, in data set [1], the “APD95-HOE 234” value is recorded as 137 ± 20 (150 ± 23) ms and the APD95-DEO is given as 125 (175) ms.

The values above are taken from patent US6506937B2, “Substituted benzenesulfonylureas and -thioureas-processes for their preparation and their use as pharmaceuticals” (priority 1993, dated 2003).
